What follows are compounds tested on RS4;11 cells (assay: RS4;11 cell viability assay (CellTiter Glo)). Conditions: Homo sapiens, RS4-11, 48 h, 50,000 cells per well, 10% human serum, 48 hours; read-out: RS4; 11 EC50 Values.
Assay type: cell-based, human
Method: The acute lymphoblastic leukemia (ALL) cell line RS4;11 was used as the primary human cell line to assess the cellular activity of Bcl-2 selective agents in vitro and their efficacy in vivo.
Cell cytotoxicity EC50 values were assessed using CellTiter Glo (Promega) according to the manufacturer's recommendations. The EC50 values were determined as a percentage of viable cells following treatment compared to the untreated control cells.
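Also: acute lymphoblastic leukemia line RS4,11, EC50 derived from percentage of viable cells after treatment relative to untreated controls, cell killing taken as a measure of Bcl-2 inhibition.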

SMILES	EC50 [nM]
CO[C@H]1CC[C@H](COc2ccc(S(=O)(=O)NC(=O)c3ccc(N4CCN(CC5=C(c6ccc(Cl)cc6)CC(C)(C)CC5)CC4)cc3Oc3cnc4[nH]ccc4c3)cc2[N+](=O)[O-])CC1 [Example 125, Trans-4-(4-{[2-(4-chlorophenyl)-4,4-dimethylcyclohex-1-en-1-yl]methyl}piperazin-1-yl)-N-({4-[(4-methoxycyclohexyl)methoxy]-3-nitrophenyl}sulfonyl)-2-(1H-pyrrolo[2,3-b]pyridin-5-yloxy)benzamide]	8.38
CC1(C)CCC(CN2CCN(c3ccc(C(=O)NS(=O)(=O)c4ccc(OCC5(F)CCN(C(=O)OC(C)(C)C)CC5)c([N+](=O)[O-])c4)c(Oc4cnc5[nH]ccc5c4)c3)CC2)=C(c2ccc(Cl)cc2)C1 [Example 126, tert-butyl 4-{[4-({[4-(4-{[2-(4-chlorophenyl)-4,4-dimethylcyclohex-1-en-1-yl]methyl}piperazin-1-yl)-2-(1H-pyrrolo[2,3-b]pyridin-5-yloxy)benzoyl]amino}sulfonyl)-2-nitrophenoxy]methyl}-4-fluoropiperidine-1-carboxylate]	53.6
CC1(C)CCC(CN2CCN(c3ccc(C(=O)NS(=O)(=O)c4ccc(OCC5(F)CCNCC5)c([N+](=O)[O-])c4)c(Oc4cnc5[nH]ccc5c4)c3)CC2)=C(c2ccc(Cl)cc2)C1 [Example 127, 4-(4-{[2-(4-chlorophenyl)-4,4-dimethylcyclohex-1-en-1-yl]methyl}piperazin-1-yl)-N-({4-[(4-fluoropiperidin-4-yl)methoxy]-3-nitrophenyl}sulfonyl)-2-(1H-pyrrolo[2,3-b]pyridin-5-yloxy)benzamide]	9.75
CC1(C)CCC(CN2CCN(c3ccc(C(=O)NS(=O)(=O)c4ccc(N[C@H]5CC[C@H](N6CCN(C7CCOCC7)CC6)CC5)c([N+](=O)[O-])c4)c(Oc4cnc5[nH]ccc5c4)c3)CC2)=C(c2ccc(Cl)cc2)C1 [Example 128, Trans-4-(4-{[2-(4-chlorophenyl)-4,4-dimethylcyclohex-1-en-1-yl]methyl}piperazin-1-yl)-N-[(3-nitro-4-{[4-(4-tetrahydro-2H-pyran-4-ylpiperazin-1-yl)cyclohexyl]amino}phenyl)sulfonyl]-2-(1H-pyrrolo[2,3-b]pyridin-5-yloxy)benzamide]	5.89
CC1(C)CCC(CN2CCN(c3ccc(C(=O)NS(=O)(=O)c4ccc(OCC5CCN(C(CF)CF)CC5)c([N+](=O)[O-])c4)c(Oc4cnc5[nH]ccc5c4)c3)CC2)=C(c2ccc(Cl)cc2)C1 [Example 129, 4-(4-{[2-(4-chlorophenyl)-4,4-dimethylcyclohex-1-en-1-yl]methyl}piperazin-1-yl)-N-{[4-({1-[2-fluoro-1-(fluoromethyl)ethyl]piperidin-4-yl}methoxy)-3-nitrophenyl]sulfonyl}-2-(1H-pyrrolo[2,3-b]pyridin-5-yloxy)benzamide]	14.8
CC1(C)CCC(CN2CCN(c3ccc(C(=O)NS(=O)(=O)c4ccc(N[C@@H]5CCN(C6CCOCC6)C5)c([N+](=O)[O-])c4)c(Oc4cnc5[nH]ccc5c4)c3)CC2)=C(c2ccc(Cl)cc2)C1 [Example 130, 4-(4-{[2-(4-chlorophenyl)-4,4-dimethylcyclohex-1-en-1-yl]methyl}piperazin-1-yl)-N-[(3-nitro-4-{[(3R)-1-tetrahydro-2H-pyran-4-ylpyrrolidin-3-yl]amino}phenyl)sulfonyl]-2-(1H-pyrrolo[2,3-b]pyridin-5-yloxy)benzamide]	10.6
CC1(C)CCC(CN2CCN(c3ccc(C(=O)NS(=O)(=O)c4ccc(N[C@@H]5CCN(C6CCOC(C)(C)C6)C5)c([N+](=O)[O-])c4)c(Oc4cnc5[nH]ccc5c4)c3)CC2)=C(c2ccc(Cl)cc2)C1 (stereo partly drawn) [Example 131, 4-(4-{[2-(4-chlorophenyl)-4,4-dimethylcyclohex-1-en-1-yl]methyl}piperazin-1-yl)-N-[(4-{[(3R)-1-(2,2-dimethyltetrahydro-2H-pyran-4-yl)pyrrolidin-3-yl]amino}-3-nitrophenyl)sulfonyl]-2-(1H-pyrrolo[2,3-b]pyridin-5-yloxy)benzamide]	12.7
CC1(C)CCC(CN2CCN(c3ccc(C(=O)NS(=O)(=O)c4ccc(N[C@H]5CCN(C6CCOCC6)C5)c([N+](=O)[O-])c4)c(Oc4cnc5[nH]ccc5c4)c3)CC2)=C(c2ccc(Cl)cc2)C1 [Example 132, 4-(4-{[2-(4-chlorophenyl)-4,4-dimethylcyclohex-1-en-1-yl]methyl}piperazin-1-yl)-N-[(3-nitro-4-{[(3S)-1-tetrahydro-2H-pyran-4-ylpyrrolidin-3-yl]amino}phenyl)sulfonyl]-2-(1H-pyrrolo[2,3-b]pyridin-5-yloxy)benzamide]	22.1
CC1(C)CCC(CN2CCN(c3ccc(C(=O)NS(=O)(=O)c4ccc(N[C@H]5CCN(C6CCOC(C)(C)C6)C5)c([N+](=O)[O-])c4)c(Oc4cnc5[nH]ccc5c4)c3)CC2)=C(c2ccc(Cl)cc2)C1 (stereo partly drawn) [Example 133, 4-(4-{[2-(4-chlorophenyl)-4,4-dimethylcyclohex-1-en-1-yl]methyl}piperazin-1-yl)-N-[(4-{[(3S)-1-(2,2-dimethyltetrahydro-2H-pyran-4-yl)pyrrolidin-3-yl]amino}-3-nitrophenyl)sulfonyl]-2-(1H-pyrrolo[2,3-b]pyridin-5-yloxy)benzamide]	31.9
CN1CCOC(CNc2ccc(S(=O)(=O)NC(=O)c3ccc(N4CCN(CC5=C(c6ccc(Cl)cc6)CC(C)(C)CC5)CC4)cc3Oc3cnc4[nH]ccc4c3)cc2[N+](=O)[O-])C1 (stereo not shown) [Example 134, 4-(4-{[2-(4-chlorophenyl)-4,4-dimethylcyclohex-1-en-1-yl]methyl}piperazin-1-yl)-N-[(4-{[(4-methylmorpholin-2-yl)methyl]amino}-3-nitrophenyl)sulfonyl]-2-(1H-pyrrolo[2,3-b]pyridin-5-yloxy)benzamide]	2.51
COCCN1CCOC(CNc2ccc(S(=O)(=O)NC(=O)c3ccc(N4CCN(CC5=C(c6ccc(Cl)cc6)CC(C)(C)CC5)CC4)cc3Oc3cnc4[nH]ccc4c3)cc2[N+](=O)[O-])C1 (stereo not shown) [Example 135, 4-(4-{[2-(4-chlorophenyl)-4,4-dimethylcyclohex-1-en-1-yl]methyl}piperazin-1-yl)-N-{[4-({[4-(2-methoxyethyl)morpholin-2-yl]methyl}amino)-3-nitrophenyl]sulfonyl}-2-(1H-pyrrolo[2,3-b]pyridin-5-yloxy)benzamide]	2.37
CC(=O)N1CCOC(CNc2ccc(S(=O)(=O)NC(=O)c3ccc(N4CCN(CC5=C(c6ccc(Cl)cc6)CC(C)(C)CC5)CC4)cc3Oc3cnc4[nH]ccc4c3)cc2[N+](=O)[O-])C1 (stereo not shown) [Example 136, N-[(4-{[(4-acetylmorpholin-2-yl)methyl]amino}-3-nitrophenyl)sulfonyl]-4-(4-{[2-(4-chlorophenyl)-4,4-dimethylcyclohex-1-en-1-yl]methyl}piperazin-1-yl)-2-(1H-pyrrolo[2,3-b]pyridin-5-yloxy)benzamide]	2.96
CC1(C)CCC(CN2CCN(c3ccc(C(=O)NS(=O)(=O)c4ccc(NCC5(F)CCOCC5)c([N+](=O)[O-])c4)c(Oc4cnc5[nH]ccc5c4)c3)CC2)=C(c2ccc(Cl)cc2)C1 [Example 138, 4-(4-{[2-(4-chlorophenyl)-4,4-dimethylcyclohex-1-en-1-yl]methyl}piperazin-1-yl)-N-[(4-{[(4-fluorotetrahydro-2H-pyran-4-yl)methyl]amino}-3-nitrophenyl)sulfonyl]-2-(1H-pyrrolo[2,3-b]pyridin-5-yloxy)benzamide]	1.52

Source: patent US20240043404A1 (AbbVie Inc., priority 2009, published 2024)
